Laboratory results from a melting point compilation (Tetko et al.; mined from patent text by program, amines drawn as free bases though some values may be those of a salt).

Point of comparison: `CCOC(=O)C1=C(C)NC(C)=C(C(=O)OC(C)C)C1c1ccccc1C#N` (stereo not drawn), melting point 152 °C. Against it:
- O=C(O)c1cnn2c(C(F)F)cc(-c3ccc(OC(F)(F)F)cc3)nc12 — higher, 231 °C
- Cc1cc(-c2cccc(N)n2)c(C)cc1OCCN1CCN(CCc2ccccc2)CC1 — higher, > 220 °C
- O=C([C@H]1CC[C@H](Nc2ncc3ncnc(Nc4ccc(F)c(Cl)c4)c3n2)CC1)N1CCCC1 — higher, 206 to 209 °C
- Cc1cc(C2=NN(C3=NNC(=O)CS3)[C@H](C)Cc3cc4c(cc32)OCO4)ccc1[N+](=O)[O-] — higher, 207 to 211 °C
- Cc1ccc(-c2cc(-c3ccccc3)cc3c2OC(CN)C3)cc1 (stereo not drawn) — higher, 159 to 162 °C
- O=Cc1c2ccccc2c(C=O)c2cc(Cl)ccc12 — higher, 192 to 195 °C
- O=C(O)CCCc1cc2cc(C(F)(F)F)ccc2n1S(=O)(=O)c1ccc2c(c1)CCO2 — lower, 144 to 149 °C
- Cc1nc2scc(C)n2c(=O)c1CCN1CCC(c2c[nH]c3ccccc23)CC1 — higher, 275 °C
- CC(C)(Cl)Cn1ncc(Cl)c(Cl)c1=O — lower, 61 to 66 °C
- CC(C)(C(=O)c1ccc(N2CCCCC2)cc1)N1CCOCC1 — higher, 159 to 162 °C
- O=C(NN=Cc1ccc(Cl)cc1)c1[nH]c2ccccc2c1C(=O)Nc1ccccc1 — higher, > 260 °C
- N#CN1C2CCC1CC(c1n[nH]c3ccccc13)C2 (stereo not drawn) — higher, 201 to 202 °C
- CCCc1nn(-c2ccc(C(F)(F)F)cn2)cc1COc1ccc(CCC(=O)O)c(OC)c1 — higher, 153 to 154 °C
- COc1ccc(SCn2cc(Cl)cnc2=O)cc1 — lower, 140 °C
- O=C(O)c1ccc(NC(=O)C(CS)Cc2ccccc2)cc1Cl (stereo not drawn) — lower, 65 to 70 °C
- Cc1ccc(OC(C)(C)C=O)c(C#N)c1 — lower, 60 to 64 °C
- CC(C)(C)OC(=O)CNc1ccccc1C(=O)c1ccccc1 — lower, 88 °C
- Nc1nc(Cc2ccc(OCc3ccccc3)cc2)nc2nc(-c3ccco3)nn12 — higher, 220 to 222 °C
- Brc1ncccc1-c1cccnc1 — lower, 97 to 98 °C
- CN(C)C(=O)N(C)C(=O)Nc1ccccc1 — lower, 89.5 to 90.5 °C
- N#Cc1ccc2[nH]cc([C@H]3CC[C@@H](N4CC(Oc5cccc(F)c5)C4)CC3)c2c1 — higher, 187 to 190 °C
- CCOC(=O)C1=C(c2ccc(-n3c(C)nc4cnccc43)cc2)NC(C)=C(C(=O)OCCOC)C1c1ccccc1Cl (stereo not drawn) — higher, 195 to 196 °C
- CC(C)(ON=C(C(=O)N[C@@H]1C(=O)N[C@@H]1C(N)=O)c1csc(NC(=O)CCl)n1)C(=O)OCc1ccc([N+](=O)[O-])cc1 (relative stereo) — lower, 144 to 147 °C
- O=C(Oc1ccc(-c2ccccc2)cc1)Oc1ccc([N+](=O)[O-])cc1 — lower, 138 to 140 °C
- O=C(c1ccccc1)c1cccc(Cl)c1[N+](=O)[O-] — lower, 126 °C
- NC1=NS(=O)(=O)Nc2cccc(OCC3(NC(=O)c4ccncc4)CCCC3)c21 — higher, > 250 °C
- CCN(c1ccc(C(=O)O)nn1)C(C)c1cc(Br)ccc1OCc1ccccc1 (stereo not drawn) — lower, 129 °C
- CCOc1ccc2nc(COc3ccc(CC4SC(=O)NC4=O)cc3)n(C)c2n1 (stereo not drawn) — higher, 245 to 246 °C
- CC(=O)Nc1cccc(Oc2cc(-c3ccc(C(F)(F)F)cc3)ncn2)c1 — higher, 202 to 205 °C
- O=C1CN(c2nccc(Oc3ccc(NC(=O)c4cc(F)cc(N5CCCCC5)c4)c4ccccc34)n2)CCN1 — lower, 140 to 142 °C
- CC(C)(C)OC(=O)CCN(CCC12CC3CC(CC(C3)C1)C2)C(=O)NCCCc1ccncc1 — lower, 124 to 127 °C
- CCCC(=O)c1cnc2c(C)cccc2c1Nc1c(C)cccc1C — lower, 100 to 101 °C
- CCCCc1nc2cccc(C(=O)OC)c2n1Cc1ccc(-n2cccc2C#N)cc1 — lower, 128 to 129 °C
- O=c1[nH]c(S)ncc1O — higher, > 300 °C
- Cc1cccc(COc2cccc(OCc3ccc4cc(F)ccc4n3)c2)c1OCC(=O)O — higher, 160 to 161 °C
- C=CCN1C(=O)C(O)(CC(=O)N(C)C)c2cc(CO)ccc21 (stereo not drawn) — lower, 125 °C
- CCC(=O)Nc1c(Sc2cc(C)cc(C)c2)c(C)c[nH]c1=O — higher, 186 to 188 °C
